One experiment deals with JAK1 (Homo sapiens, UniProt P23458). Kind of experiment: JAK LanthaScreen Kinase Assay (TR-FRET), JAK1 in vitro enzyme assay. In kind it is biochemical. The conditions noted are these: ATP 20.0 μM; n=6. The text has this:
JAK1, JAK2 and JAK3 In Vitro Enzyme Assays
The JAK LanthaScreen™ Kinase Assay (Invitrogen) is used to determine the ability of test compounds to inhibit JAK1, JAK2 and JAK3 kinase activity. These are TR-FRET assay formats that use long-lifetime terbium labeled antibody as the donor species and GFP-STAT1 as the acceptor species. Use the TR-FRET ratio to monitor JAK kinase activity where an increase in phosphorylation of the GFP-STAT1 results in an increase in the TR-FRET ratio. Perform the kinase reaction using a 12.5 μl reaction volume in shallow black 384-well Proxiplate. Add reagents to obtain final reaction conditions of […] HEPES pH, 1.76 mM Triton X-100, ATP (20.0 μM for JAK1 and JAK3 or 5 μM for JAK2) enzyme assays, 10.0 mM MgCl2, 1 mM EGTA and 0.01% Brij-35, 0.05 mM GFP-STAT1, 14 nM JAK1 enzyme for JAK1, 1.0 nM for JAK2 or 2.5 nM for JAK3 enzyme assays, and 4% DMSO and serial dilutions of test compound (diluted 1:3 from 20,000 to 1 nM). Following ATP/GFP-STAT1 addition, centrifuge the assay plates for 1 minute at 1000 revolutions per minute (RPM). Allow the plates to incubate at RT for 60 minutes and then add 12.5 μl of a stopping buffer containing 20 mM EDTA, 2 nM Terbium-anti-phosphorylated Signal Transducers and Activators of Transcription [phosphorylation Tyrosine 701 amino acid] […]
For orientation: Time-resolved FRET reads energy transfer from a long-lived donor to a nearby acceptor.

The target of the next experiment is JAK2 (Homo sapiens, UniProt O60674). Kind of experiment: Human whole blood assay: pSTAT5 (JAK2) in monocytes. Also on record: endogenous in cells; host or cells: human whole blood, CD4Low CD33Hi monocytes. Type of experiment: cell-based. The following applies: HWB, GM-CSF stimulated, CD4Low CD33Hi monocytes; n=3. The text has this:
Human Whole Blood Assays: Determination of pSTAT3 (JAK1) and pSTAT5 (JAK2) in Lymphocytes and Monocytes
Human whole blood (HWB) assays were developed and validated to determine the JAK1 and JAK2 selectivity of test compounds.
Dilute the test compounds, 10 points, (1:3) in DMSO 100% and a step down in PBS+0.1% BSA. Use tofacitinib as a reference compound in each plate, as well as a maximum signal (stimulated wells) and a minimum signal (no stimulated wells) in order to normalize data. Obtain a pool of HWB from 4 different healthy donors. Plate the blood in a 96 well plate using a Tecan Evo 96w and incubate with test compounds for 1 h at RT. After this time of incubation, stimulate HWB with both IL6 (206-IL, R&D System) and GM-CSF (PHC2015, Life Technologies) for 15 more minutes. […]
The final concentrations in the assay are the following: 100 μM for compounds, 50 μM for tofacitinib, 0.1 μg/mL IL6, 0.038 μg/mL GM-CSF and 1% DMSO. […] Incubate the antibodies for 1 h in dark at RT, then wash cells 2× and read on Cytometer Macsquant (Miltenyi Biotec). Gate the data on CD4+(lymphocytes) and CD4Low CD33Hi (monocytes), to measure the fluorescence from cells expressing pSTAT3 and pSTAT5 respectively. Analyze the data using FlowJo v_10 and the normalize the median of fluorescence versus maximum and minimum signal to determine the IC50s. […]

JAK2, sequence (O60674 whole entry): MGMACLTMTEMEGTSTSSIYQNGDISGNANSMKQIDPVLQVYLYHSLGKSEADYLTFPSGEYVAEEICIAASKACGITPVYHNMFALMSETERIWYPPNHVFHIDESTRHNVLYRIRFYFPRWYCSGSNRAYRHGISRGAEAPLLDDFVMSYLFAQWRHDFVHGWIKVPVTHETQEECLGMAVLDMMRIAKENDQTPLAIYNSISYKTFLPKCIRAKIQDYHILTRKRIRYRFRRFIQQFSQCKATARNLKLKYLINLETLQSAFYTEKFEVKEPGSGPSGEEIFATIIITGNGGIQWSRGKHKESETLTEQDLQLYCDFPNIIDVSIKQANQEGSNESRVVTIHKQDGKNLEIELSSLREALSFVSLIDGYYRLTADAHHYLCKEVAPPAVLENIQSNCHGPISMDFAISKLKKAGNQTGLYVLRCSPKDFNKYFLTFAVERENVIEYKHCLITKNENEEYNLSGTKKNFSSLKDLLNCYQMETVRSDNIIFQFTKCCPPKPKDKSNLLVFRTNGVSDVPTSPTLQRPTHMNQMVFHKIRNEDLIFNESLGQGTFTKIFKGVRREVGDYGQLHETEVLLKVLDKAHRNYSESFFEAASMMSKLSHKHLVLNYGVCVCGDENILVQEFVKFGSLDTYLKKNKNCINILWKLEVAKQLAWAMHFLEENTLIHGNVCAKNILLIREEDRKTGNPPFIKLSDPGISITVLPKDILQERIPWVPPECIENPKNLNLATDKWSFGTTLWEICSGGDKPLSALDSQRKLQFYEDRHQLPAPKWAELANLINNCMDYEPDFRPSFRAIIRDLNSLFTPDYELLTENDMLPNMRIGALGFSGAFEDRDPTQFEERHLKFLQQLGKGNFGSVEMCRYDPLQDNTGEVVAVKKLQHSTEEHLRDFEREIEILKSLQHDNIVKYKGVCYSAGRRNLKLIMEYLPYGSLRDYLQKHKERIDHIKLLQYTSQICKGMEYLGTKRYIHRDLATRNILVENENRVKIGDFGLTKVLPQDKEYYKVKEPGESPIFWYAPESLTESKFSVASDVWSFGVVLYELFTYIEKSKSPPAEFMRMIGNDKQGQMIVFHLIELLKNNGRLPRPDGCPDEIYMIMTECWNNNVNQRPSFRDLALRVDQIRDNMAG
JAK1, sequence (P23458 whole entry): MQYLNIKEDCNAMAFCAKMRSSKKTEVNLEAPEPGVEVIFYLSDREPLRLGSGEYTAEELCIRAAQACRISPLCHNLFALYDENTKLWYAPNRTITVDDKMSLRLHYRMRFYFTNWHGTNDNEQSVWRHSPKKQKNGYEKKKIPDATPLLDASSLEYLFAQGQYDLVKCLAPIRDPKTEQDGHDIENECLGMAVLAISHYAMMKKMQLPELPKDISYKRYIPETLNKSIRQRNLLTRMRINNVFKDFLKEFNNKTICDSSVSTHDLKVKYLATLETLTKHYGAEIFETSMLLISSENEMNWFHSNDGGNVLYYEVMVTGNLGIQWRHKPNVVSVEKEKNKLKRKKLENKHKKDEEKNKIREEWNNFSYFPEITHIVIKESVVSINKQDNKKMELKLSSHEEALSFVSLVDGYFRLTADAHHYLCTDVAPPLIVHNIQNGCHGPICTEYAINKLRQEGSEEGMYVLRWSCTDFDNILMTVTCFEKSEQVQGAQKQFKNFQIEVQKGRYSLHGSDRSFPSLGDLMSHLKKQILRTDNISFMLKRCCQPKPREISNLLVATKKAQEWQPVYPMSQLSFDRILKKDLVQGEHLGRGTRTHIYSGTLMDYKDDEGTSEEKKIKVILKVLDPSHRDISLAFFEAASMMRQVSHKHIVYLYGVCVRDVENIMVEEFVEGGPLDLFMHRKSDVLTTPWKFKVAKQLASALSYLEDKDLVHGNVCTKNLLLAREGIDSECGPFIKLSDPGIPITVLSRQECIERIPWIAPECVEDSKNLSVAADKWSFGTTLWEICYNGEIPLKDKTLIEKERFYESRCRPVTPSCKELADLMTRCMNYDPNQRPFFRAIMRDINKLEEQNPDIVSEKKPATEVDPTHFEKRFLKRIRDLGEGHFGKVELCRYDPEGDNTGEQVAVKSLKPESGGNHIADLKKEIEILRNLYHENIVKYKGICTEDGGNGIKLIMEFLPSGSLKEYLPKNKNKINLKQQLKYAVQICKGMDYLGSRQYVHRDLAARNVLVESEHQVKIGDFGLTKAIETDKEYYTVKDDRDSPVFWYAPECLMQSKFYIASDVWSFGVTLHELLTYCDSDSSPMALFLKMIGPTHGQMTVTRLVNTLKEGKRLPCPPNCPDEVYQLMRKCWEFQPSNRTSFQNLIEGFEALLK

Usually IC50 stands for the concentration at which inhibition is half-maximal. High values mean weaker potency, low ones greater potency. `Cc1cc(Nc2cc(O[C@H]3CC[C@@H](NC[C@@H](O)C(F)(F)F)CC3)cc3c2ncn3C)nn1C` [Example 1, (2R)-3-{[cis-4-({4-[(1,5-Dimethyl-1H-pyrazol-3-yl)amino]-1-methyl-1H-benzimidazol-6-yl}oxy)cyclohexyl]amino}-1,1,1-trifluoropropan-2-ol]: the figures for the IC50 at JAK1 and against JAK2 were 0.004 ± 0.0008 µM and 13 ± 3.2 µM, respectively.
